Changes are numbered by the printed parent chain. Where a SMILES comes first, the peptide text is derived from it.
Experiments:
[1] = target: T1, hTAS1R2 + hTAS1R3 S729A^5.42 (Homo sapiens, UniProt Q7RTX0+Q8TE23, S729A); test: Calcium response (FLIPR), hTAS1R3 mutant coexpressed with hTAS1R2; format: cell-based; details: variant S729A^5.42; for Emax: read-out: maximal signal (% of wt)
T1 construct: expressed in transfected cells; host or cells: HEK293T cells stably expressing G16Gust44
T1 sequence (Q8TE23 20-839): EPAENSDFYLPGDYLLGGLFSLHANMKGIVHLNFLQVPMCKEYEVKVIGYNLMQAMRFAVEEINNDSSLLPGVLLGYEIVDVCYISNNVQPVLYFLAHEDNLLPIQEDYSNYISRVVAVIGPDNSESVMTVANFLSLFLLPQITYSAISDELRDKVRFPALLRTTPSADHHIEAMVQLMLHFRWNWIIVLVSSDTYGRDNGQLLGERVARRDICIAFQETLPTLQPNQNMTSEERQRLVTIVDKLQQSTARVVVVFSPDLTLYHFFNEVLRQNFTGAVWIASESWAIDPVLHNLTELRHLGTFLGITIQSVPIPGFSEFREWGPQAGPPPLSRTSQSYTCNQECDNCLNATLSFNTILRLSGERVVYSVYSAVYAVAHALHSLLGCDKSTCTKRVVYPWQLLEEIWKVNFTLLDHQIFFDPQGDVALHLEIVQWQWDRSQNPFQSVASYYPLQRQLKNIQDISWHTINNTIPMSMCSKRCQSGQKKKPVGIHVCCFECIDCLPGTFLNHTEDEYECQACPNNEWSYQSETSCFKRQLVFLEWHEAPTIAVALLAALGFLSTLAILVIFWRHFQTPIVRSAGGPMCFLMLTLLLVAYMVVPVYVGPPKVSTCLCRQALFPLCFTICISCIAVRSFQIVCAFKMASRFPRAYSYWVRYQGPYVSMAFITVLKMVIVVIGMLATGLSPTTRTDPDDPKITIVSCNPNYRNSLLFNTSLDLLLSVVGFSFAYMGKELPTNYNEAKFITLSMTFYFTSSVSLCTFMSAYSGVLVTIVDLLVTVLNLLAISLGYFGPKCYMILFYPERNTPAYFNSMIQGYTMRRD
T1 sequence (Q7RTX0 21-852 S729A): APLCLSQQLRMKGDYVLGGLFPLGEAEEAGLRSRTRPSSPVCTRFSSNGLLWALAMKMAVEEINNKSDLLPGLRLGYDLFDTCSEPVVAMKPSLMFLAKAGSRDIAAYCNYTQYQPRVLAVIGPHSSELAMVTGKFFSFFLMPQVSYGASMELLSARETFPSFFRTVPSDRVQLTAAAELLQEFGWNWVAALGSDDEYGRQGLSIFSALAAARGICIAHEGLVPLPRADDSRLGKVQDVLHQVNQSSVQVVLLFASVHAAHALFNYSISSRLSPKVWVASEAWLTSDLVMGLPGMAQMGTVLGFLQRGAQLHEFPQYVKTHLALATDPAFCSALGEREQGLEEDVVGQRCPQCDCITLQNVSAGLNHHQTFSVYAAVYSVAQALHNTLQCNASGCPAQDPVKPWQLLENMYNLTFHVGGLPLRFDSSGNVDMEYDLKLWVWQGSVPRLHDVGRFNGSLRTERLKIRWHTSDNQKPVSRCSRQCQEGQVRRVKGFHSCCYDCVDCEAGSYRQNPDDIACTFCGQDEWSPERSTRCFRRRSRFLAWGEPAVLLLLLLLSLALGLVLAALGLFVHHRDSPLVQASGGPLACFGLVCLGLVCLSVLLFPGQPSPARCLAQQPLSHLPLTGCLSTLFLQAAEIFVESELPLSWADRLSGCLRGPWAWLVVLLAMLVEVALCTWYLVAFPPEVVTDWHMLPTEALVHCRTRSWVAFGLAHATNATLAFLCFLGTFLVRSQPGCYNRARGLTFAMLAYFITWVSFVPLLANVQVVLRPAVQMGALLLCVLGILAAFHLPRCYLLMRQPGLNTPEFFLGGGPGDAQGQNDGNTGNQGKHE
Method in brief: (§1)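 HEK293T/G16Gust44, transient transfection of HSV-tagged TAS1R2 + TAS1R3 mutants; Fluo4-AM loading 1 h at 24 h; sweet tastants in C1 solution; FLIPR Ca2+ read; ΔF/F, mock-subtracted; ≥3 independent expts in duplicate.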

[2] = target: T2, hTAS1R2 + hTAS1R3 L800F^7.38 (Homo sapiens, UniProt Q7RTX0+Q8TE23, L800F); test: as above; format: cell-based; details: variant L800F^7.38; for Emax: read-out: maximal signal (% of wt)
T2 construct: expressed in transfected cells; host or cells: HEK293T cells stably expressing G16Gust44
T2 sequence (Q7RTX0 21-852 L800F): T1 sequence (Q7RTX0 21-852 S729A) with A709S, L780F
T2 sequence (Q8TE23 20-839): T1 sequence (Q8TE23 20-839)
Method in brief: as §1

Row | EC50 [1] | Emax [1] | EC50 [2] | Emax [2] | Compound
1 | 200 ± 100 µM | 80 ± 16% | 200 ± 100 µM | 91 ± 70% | COc1ccc(CCC(=O)c2c(O)cc(O[C@@H]3O[C@H](CO)[C@@H](O)[C@H](O)[C@H]3O[C@@H]3O[C@@H](C)[C@H](O)[C@@H](O)[C@H]3O)cc2O)cc1O [NHDC, neohesperidin dihydrochalcone]
2 | 900 ± 400 µM | 72 ± 20% | 1200 ± 300 µM | 90 ± 1% | COC(=O)[C@H](Cc1ccccc1)NC(=O)[C@@H](N)CC(=O)O [aspartame] (HELM PEPTIDE1{D.F.[CO[*:1]]}$$$$V2.0)

— article PMC2099433, “The binding site for neohesperidin dihydrochalcone at the human sweet taste receptor” (BMC Structural Biology, 2007)
